From PMC10708537, “Tetrahydrocurcumin Derivatives Enhanced the Anti-Inflammatory Activity of Curcumin: Synthesis, Biological Evaluation, and Structure–Activity Relationship Analysis” (Molecules, 2023)
“Also recorded” adds a separate entry of the source. Read-outs that look alike come from different tables or passages of the source. One block for each compound: values may come before it.

How the values were obtained:
IL-6 = test: LPS-induced IL-6 production in peritoneal macrophages (ELISA); assay type: cell-based, C57BL/6 mice
Protocol: (§1) Peritoneal macrophages were obtained by washing the peritoneal cavities of C57B1/6 mice five days after intraperitoneal instillation of 2 mL of 3% thioglycollate. Macrophages were seeded in RPMI containing 10% FCS at 2 × 10^5 cells/well in 96-well plates and cultured for 2 h at 37 °C under a 5% CO2 atmosphere. Adherent cells were pretreated with the compounds (30 μM) 1 h before stimulation with LPS (10 ng/mL). For dose–response experiments, compounds were used at concentrations of 1, 3, 10, and 30 μM. Supernatants were collected 6 h after LPS stimulation. Control and experimental treatments were performed in the presence of 0.5% DMSO, as the compounds were solubilized in this solvent. The concentrations of TNF-α, IL-6, and PGE2 were determined by ELISA (R&D System) following the manufacturer’s protocol.
(§2) Results from the cytokine measurements and cytotoxicity assays were analyzed using the statistical software package GraphPad Prism 9.4.0. All data are presented as the mean ± S.E.M. Statistical analysis was performed by Student’s t-test. The differences between samples were considered significant when p < 0.05. The 50% inhibitory concentration (IC50) was calculated by adjusting a sigmoidal dose–response curve following the standard procedure in GraphPad Prism 5.

PGE2 = test: LPS-induced PGE2 production in peritoneal macrophages (ELISA); assay type: cell-based, C57BL/6 mice; details: 30 μM, LPS 10 ng/mL, 6 h (Figure 6)
Protocol: as §1

TNF-α = test: LPS-induced TNF-α production in peritoneal macrophages (ELISA); assay type: cell-based, C57BL/6 mice; details: for IC50: macrophages pretreated 1 h, supernatant 6 h, two independent experiments in triplicate, read-out: IC50 ± S.D. (μM) TNF-α
Protocol: as §1, §2

[1] = test system: macrophages from the peritoneal cavities of C57BL/6 mice; test: MTT cytotoxicity assay on macrophages; assay type: cell-based; details: 30 μM, after supernatant collection (Figure 4C)
Protocol: After removing the supernatants, 100 μL of 0.5 mg/mL MTT in RPMI was added to each well. Cells were incubated overnight at 37 °C, and formazan crystals were dissolved in 100 µL of 0.04 M HCl in isopropanol. Then, the absorbance was measured at 570 nm using an ELISA plate reader. Cell viability was calculated using the following formula: % viability: [(OD sample) × 100%]/(OD control). Nonstimulated cells represented 100% viability.

[2] = Mus musculus, Macrophage, macrophages pretreated 1 h, LPS 10 ng/mL, supernatant 6 h, two independent experiments in triplicate, read-out: IC50 ± S.D. (μM) IL-6
[3] = Mus musculus, Peritoneal macrophage, converted from IL-6 IC50 of this work, used for 3D-QSAR, read-out: Experimental pIC50 (converted)
[4] = dose-response, all concentrations tested (1, 3, 10, 30 μM) (Figure 5A)
[5] = single concentration 30 μM, LPS 10 ng/mL, 6 h (Figure 4A)
[6] = dose-response, 10 µM (Figure 5B)
[7] = dose-response, lowest concentration 1 µM (Figure 5B)
[8] = Mus musculus, Macrophage, LPS 10 ng/mL

- IC50 (IL-6; [2]): 9.13 ± 5.9 µM
- IC50 (IL-6; [3]): 9.12 µM
Compound: COc1cc(CCC(=O)/C=C(\O)CCc2ccc(OC(=O)CCC(=O)OC3Cc4ccccc4C3)c(OC)c2)ccc1OC(=O)CCC(=O)OC1Cc2ccccc2C1 [Compound 5, (Z)-bis(2,3-Dihydro-1H-inden-2-yl) O,O′-((3-hydroxy-5-oxohept-3-ene-1,7-diyl)bis(2-methoxy-4,1-phenylene)) Disuccinate]

- IC50 (IL-6; [2]): 3.66 ± 4.21 µM
- IC50 (IL-6; [3]): 3.63 µM
Compound: COc1cc(CCC(=O)/C=C(\O)CCc2ccc(OC(=O)CCC(=O)OC3CCCC3)c(OC)c2)ccc1OC(=O)CCC(=O)OC1CCCC1 [Compound 10, (Z)-Dicyclopentyl O,O′-((3-Hydroxy-5-oxohept-3-ene-1,7-diyl)bis(2-methoxy-4,1-phenylene)) Disuccinate]

- IC50 (TNF-α; [8]): 0.7 ± 0.1 µM
- IC50 (IL-6; [2]): 0.72 ± 0.38 µM
- IC50 (IL-6; [3]): 0.724 µM
Compound: C=CCOC(=O)CCC(=O)Oc1ccc(CCC(=O)/C=C(\O)CCc2ccc(OC(=O)CCC(=O)OCC=C)c(OC)c2)cc1OC [Compound 12, (Z)-Diallyl O,O′-((3-hydroxy-5-oxohept-3-ene-1,7-diyl)bis(2-methoxy-4,1-phenylene)) Disuccinate]
- inhibition of TNF-α production (TNF-α; [4]): inhibited
- inhibition of TNF-α production (TNF-α; [5]): inhibited
- inhibition of IL-6 production (IL-6; [7]): inhibited
- reduction of PGE2 production (PGE2): significantly reduced; also recorded: highest activity; also recorded: more biologically active than tetrahydrocurcumin

- IC50 (IL-6; [2]): 4.28 ± 4.88 µM
- IC50 (IL-6; [3]): 4.27 µM
Compound: COc1cc(CCC(=O)/C=C(\O)CCc2ccc(OC(=O)CCC(=O)OC3c4ccccc4-c4ccccc43)c(OC)c2)ccc1OC(=O)CCC(=O)OC1c2ccccc2-c2ccccc21 [Compound 4, (Z)-di(9H-Fluoren-9-yl)O,O′-((3-hydroxy-5-oxohept-3-ene-1,7-diyl)bis(2-methoxy-4,1-phenylene)) Disuccinate]
- inhibition of IL-6 production (IL-6; [6]): inhibited

- IC50 (TNF-α; [8]): 3.21 ± 4.52 µM
- IC50 (IL-6; [2]): 3.48 ± 4.39 µM
- IC50 (IL-6; [3]): 3.47 µM
Compound: COc1cc(CCC(=O)/C=C(\O)CCc2ccc(OC(=O)CCC(=O)OC3CCCc4ccccc43)c(OC)c2)ccc1OC(=O)CCC(=O)OC1CCCc2ccccc21 (stereo not shown) [Compound 8, (Z)-O,O′-((3-Hydroxy-5-oxohept-3-ene-1,7-diyl)bis(2-methoxy-4,1-phenylene)) bis(1,2,3,4-Tetrahydronaphthalen-1-yl) Disuccinate]
- inhibition of IL-6 production (IL-6; [6]): inhibited

- IC50 (IL-6; [2]): 0.17 ± 0.21 µM
- IC50 (IL-6; [3]): 0.17 µM
Compound: COC(=O)CCC(=O)Oc1ccc(CCC(=O)/C=C(\O)CCc2ccc(OC(=O)CCC(=O)OC)c(OC)c2)cc1OC [Compound 11, (Z)-O,O′-((3-Hydroxy-5-oxohept-3-ene-1,7-diyl)bis(2-methoxy-4,1-phenylene)) dimethyl Disuccinate]
- inhibition of TNF-α production (TNF-α; dose-response, 3 µM (Figure 5A)): showed an effect only when used at a concentration of 3 µM
- inhibition of IL-6 production (IL-6; [7]): inhibited
- reduction of PGE2 production (PGE2): significantly reduced; also recorded: highest activity

The next lines start with the compound.

Compound: C#CCOC(=O)CCC(=O)Oc1ccc(CCC(=O)/C=C(\O)CCc2ccc(OC(=O)CCC(=O)OCC#C)c(OC)c2)cc1OC [Compound 3, (Z)-O,O′-((3-Hydroxy-5-oxohept-3-ene-1,7-diyl)bis(2-methoxy-4,1-phenylene)) di(prop-2-yn-1-yl) Disuccinate]
- inhibition of IL-6 production (IL-6; single concentration 30 μM, LPS 10 ng/mL, 6 h (Figure 4B)): All compounds, except compound 3, inhibited the production of IL-6
- reduction of PGE2 production (PGE2): significantly reduced; also recorded: highest activity

Compound: Curcumin [Compound 1, reference compound]
- IC50 (IL-6; Table S1, compounds presented in the current work, read-out: IC50 ± S.D. (uM) IL-6): 6.85 ± 2.5 µM

Compound: Tetrahydrocurcumin [Compound 2, reference compound]
- inhibition of TNF-α production (TNF-α; [4]): inhibited
- IC50 (TNF-α; LPS 10 ng/mL): 0.18 ± 0.18 µM
- inhibition of TNF-α production (TNF-α; [5]): inhibited
- Experimental pIC50 (IL-6; converted from IL-6 IC50 of this work, used for 3D-QSAR): 6.77
- inhibition of IL-6 production (IL-6; [6]): inhibited
- inhibition of IL-6 production (IL-6; [7]): inhibited
- IC50 (IL-6; macrophages pretreated 1 h, LPS 10 ng/mL, supernatant 6 h, two independent experiments in triplicate, read-out: IC50 ± S.D. (μM) IL-6): 0.17 ± 0.2 µM
- reduction of PGE2 production (PGE2): but not PGE2 production

Compound: COc1cc(CC/C(O)=C/C(=O)CCc2ccc(OC(=O)CCC(=O)O[C@@H]3C[C@H](C)CC[C@H]3C(C)C)c(OC)c2)ccc1OC(=O)CCC(=O)O[C@@H]1C[C@@H](C)CC[C@@H]1C(C)C [Compound 7, O,O′-(((Z)-3-Hydroxy-5-oxohept-3-ene-1,7-diyl)bis(2-methoxy-4,1-phenylene)) bis((1R,2S,5R)-2-Isopropyl-5-methylcyclohexyl) Disuccinate]
- cytotoxicity (cell viability, MTT) [1]: cytotoxic

Compound: COc1cc(CCC(=O)/C=C(\O)CCc2ccc(OC(=O)CCC(=O)OCc3ccccc3)c(OC)c2)ccc1OC(=O)CCC(=O)OCc1ccccc1 [Compound 9, (Z)-Dibenzyl O,O′-((3-Hydroxy-5-oxohept-3-ene-1,7-diyl)bis(2-methoxy-4,1-phenylene)) Disuccinate]
- cytotoxicity (cell viability, MTT) [1]: cytotoxic

Compound: COc1cc(CCC(=O)/C=C(\O)CCc2ccc(OC(=O)CCC(=O)OC(c3ccccc3)c3ccccc3)c(OC)c2)ccc1OC(=O)CCC(=O)OC(c1ccccc1)c1ccccc1 [Compound 6, (Z)-Dibenzhydryl O,O′-((3-hydroxy-5-oxohept-3-ene-1,7-diyl)bis(2-methoxy-4,1-phenylene)) Disuccinate]
- cytotoxicity (cell viability, MTT) [1]: cytotoxic
